The values below come from patent publication US9676778B2, “Substituted pyrrolo[2,3-b]pyrazines as JAK3 inhibitors” (PRINCIPIA BIOPHARMA INC., priority 2012, dated 2017).

Assay [1] concerns the target T1, JAK3 (Homo sapiens, UniProt P52333).
T1 construct: purchased Invitrogen PV3855
The assay is described as follows: Determination of Drug-Kinase Residence Time for JAK3 (TR-FRET tracer competition). The format is binding. To be noted: 1.5 uM compound, 500 nM JAK3, from 1 hour through 6 hours. On the procedure:
The read-out for slow dissociation is the ability of the compound of interest to block binding of a high affinity fluorescent tracer molecule to the kinase active site, as detected using time-resolved fluorescence resonance energy transfer (TR-FRET). The experiment was conducted in a buffer consisting of 50 mM Hepes pH 7.5, 10 mM MgCl2, 0.01% Triton X-100, and 1 mM EGTA.
The first step of the procedure was incubation of 500 nM JAK3 (Invitrogen Cat. #PV3855) with 1.5 uM of a compound disclosed in Table 1 for 30 minutes in a volume of 10 uL. The mixture was then diluted 5-fold by mixture of 10 uL JAK3/cmpd with 40 uL buffer. A 10 uL volume of the diluted kinase/compound solution was then added to a well of a small volume 384 well plate (such as Greiner Cat. #784076). In order to probe for reversibility of the kinase-compound binding interaction, a competition solution containing both a high affinity fluorescent tracer and an antibody coupled to Europium was prepared. For JAK3, the competition solution contained 8 uM Tracer 236 (Invitrogen Cat. #PV5592), which is a proprietary high affinity ligand for JAK3 coupled to the fluorophore AlexaFluor 647. The competition solution also contained 80 nM of an Anti-GST antibody coupled to Europium which is designed to bind the GST purification tag in JAK3.
After addition of 10 uL of the competition solution to the Greiner plate, the mixture was incubated for one hour or greater to allow time for dissociation of non-covalent inhibitors and binding of the high affinity tracer. It was expected that covalent and slow dissociating inhibitors will block binding of the tracer while rapidly dissociating non-covalent inhibitors will not. Binding of the tracer to JAK3 was detected using TR-FRET between the Europium moiety of the Anti-GST antibody and the AlexaFluor 647 group of Tracer 236. Binding was evaluated using a Perkin Elmer Envision instrument (Model 2101) equipped with filters and mirrors compatible with LANCE-type TR-FRET experiments. Data were plotted at percentage of signal obtained in the absence of competitor compound. […]
A general note: TR-FRET usually uses a lanthanide donor and a delayed reading to cut background.

In assay [2] the test system is mixed lymphocyte reaction. As to conditions: Kudlacz 2004; cited from earlier work.
Assay [3] concerns collagen-induced arthritis. As to conditions: Milici 2008; cited from earlier work.
In assay [4] the test system is psoriasis. To be noted: short-term study, Boy 2009; cited from earlier work.
Assay [5] relates to delayed-type hypersensitivity response. To be noted: Kudlacz 2004; cited from earlier work.
In assay [6] the target is T2, JAK3 protein (Homo sapiens, UniProt P52333).
T2 sequence (P52333 1-1124): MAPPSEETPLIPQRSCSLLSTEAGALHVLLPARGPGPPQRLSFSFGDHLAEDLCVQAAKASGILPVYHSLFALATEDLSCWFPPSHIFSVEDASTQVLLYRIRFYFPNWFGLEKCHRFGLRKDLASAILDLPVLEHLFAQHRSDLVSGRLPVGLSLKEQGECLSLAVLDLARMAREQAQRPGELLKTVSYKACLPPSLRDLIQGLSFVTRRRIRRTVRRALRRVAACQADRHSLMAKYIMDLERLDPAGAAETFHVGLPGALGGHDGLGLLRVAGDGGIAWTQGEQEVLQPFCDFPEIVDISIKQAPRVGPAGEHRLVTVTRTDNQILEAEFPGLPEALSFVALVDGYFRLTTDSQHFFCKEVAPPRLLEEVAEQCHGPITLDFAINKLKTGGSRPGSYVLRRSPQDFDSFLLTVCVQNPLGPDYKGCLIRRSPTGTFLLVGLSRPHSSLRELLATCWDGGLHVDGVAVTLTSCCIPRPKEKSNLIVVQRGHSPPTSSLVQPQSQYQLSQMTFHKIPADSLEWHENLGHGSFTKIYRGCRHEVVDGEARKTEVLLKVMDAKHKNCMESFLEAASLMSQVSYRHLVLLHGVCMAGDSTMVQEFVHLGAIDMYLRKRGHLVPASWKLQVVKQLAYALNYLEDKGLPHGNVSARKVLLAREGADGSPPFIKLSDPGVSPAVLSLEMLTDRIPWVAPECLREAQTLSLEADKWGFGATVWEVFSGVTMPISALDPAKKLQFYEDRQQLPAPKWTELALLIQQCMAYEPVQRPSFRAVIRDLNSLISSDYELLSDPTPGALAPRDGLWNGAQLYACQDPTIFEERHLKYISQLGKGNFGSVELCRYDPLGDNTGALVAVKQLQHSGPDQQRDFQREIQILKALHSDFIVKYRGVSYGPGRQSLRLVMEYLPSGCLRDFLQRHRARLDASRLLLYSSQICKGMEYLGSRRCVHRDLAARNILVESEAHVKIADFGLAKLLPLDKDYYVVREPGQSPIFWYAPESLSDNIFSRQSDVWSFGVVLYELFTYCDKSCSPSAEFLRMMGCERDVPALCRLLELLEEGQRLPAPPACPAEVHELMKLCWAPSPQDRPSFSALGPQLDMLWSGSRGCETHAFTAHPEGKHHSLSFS
The assay is described as follows: Reversibility of Binding (trypsin digestion, HPLC-MS/MS). On the procedure:
The following approach was developed to differentiate compounds that form irreversible bonds with their targets, such as acrylamide compounds, from compound that bind reversibly. Reactions were prepared with the JAK3 protein target at a higher concentration than the compound of interest. The reactions were then digested with trypsin, disrupting proper folding of the target. […] The concentration of compound in solution was assessed both preceding and following perturbation using high performance liquid chromatography (HPLC) coupled to tandem mass spectrometry.

The subject of assay [7] is H9. The assay is described as follows: Tumor Cell Proliferation Assay. The format is cell-based. To be noted: Homo sapiens; H9, CTCL (Sézary syndrome); 72 hr. On the procedure: (§1) Cells (SZ-4 CTCL cells) were plated at a density of 5000 cells/well (384 well plates). Cells were plated in DMEM culture media supplemented with 0.5% fetal bovine serum. Other tumor cells (e.g. NK-TCL, T-ALL) were plated at densities of 2000-10,000 cells/well in culture media (e.g. DMEM, RPMI), containing 1%-20% FBS, dependent on the growth requirements of the individual tumor cell line. Compounds were diluted in culture media using serial dilution yielding final concentrations with 0 (DMSO control) or concentrations ranging from 0.5 nM to 10 uM. For the CTCL cells, after 1 hr incubation, at 37° C. in 95% air, 5% CO2, cells were induced with 100 ng/ml IL-2 for 72 hr. For the other cell types, cells were incubated without further induction for 72 hr. Cell Titer-Glo reagent was then added to the cells, contents mixed for 2 min, incubated at room temperature for 10 min, then luminescence was determined using a microplate luminometer. The percent inhibition was calculated based on a DMSO control for no inhibition and plotted as a function of test compound concentration from which an IC50 value was calculated.

The subject of assay [8] is KHG1. In words: Tumor Cell Proliferation Assay. The format is cell-based. As to conditions: KHG1, NK-TCL; 72 hr. The method, then: as §1
In assay [9] the test system is NKS1. The assay is described as follows: Tumor Cell Proliferation Assay. The format is cell-based. To be noted: NKS1, NK-TCL; 72 hr. The method, then:
as §1

Assay [10] has as its system HH. In words: Tumor Cell Proliferation Assay. The format is cell-based. To be noted: Homo sapiens, CTCL (non MF, non Sézary syndrome), 72 hr. On the procedure: as §1
The subject of assay [11] is SZ-4 CTCL cells. In words: Tumor Cell Proliferation Assay. The format is cell-based. To be noted: SZ-4, CTCL (Sézary syndrome); 100 ng/ml IL-2, 72 hr, Cell Titer-Glo. On the procedure: as §1
In assay [12] the test system is MJ. The assay is described as follows: Tumor Cell Proliferation Assay. The format is cell-based. To be noted: CTCL (Unknown), 72 hr. On the procedure:
as §1

Assay [13] has as its system Hut-102. The assay is described as follows: Tumor Cell Proliferation Assay. The format is cell-based. As to conditions: Hut-102, CTCL (Mycosis fungoides); 72 hr. On the procedure:
as §1

For assay [14], the system named is HANK1. The assay is described as follows: Tumor Cell Proliferation Assay. The format is cell-based. As to conditions: HANK1, NK-TCL; 72 hr. On the procedure:
as §1

The subject of assay [15] is H78. In words: Tumor Cell Proliferation Assay. As to conditions: H78, CTCL (Sézary syndrome); 72 hr. The format is cell-based. The method, then: as §1
Assay [16] deals with SNK1. The assay is described as follows: Tumor Cell Proliferation Assay. The format is cell-based. To be noted: SNK1, NK-TCL; 72 hr. The method, then: as §1
For assay [17], the system named is SNK6. In words: Tumor Cell Proliferation Assay. The format is cell-based. To be noted: SNK6, NK-TCL; 72 hr. The method, then: as §1

On to `CN(C)CC=CC(=O)Nc1cccc(-c2cnc3[nH]cc(C(=O)NC(C)(C)C)c3n2)c1` [Compound 3, N-(tert-butyl)-2-(3-(4-(dimethylamino)but-2-enamido)phenyl)-5H-pyrrolo[2,3-b]pyrazine-7-carboxamide], for which the “binding of Tracer 236 after pre-incubation with compound” value (from here on “binding”) in assay [1] is on record as “no increase”.

For the molecule `C[C@@H]1CCN(C(=O)CC#N)C[C@@H]1N(C)c1ncnc2[nH]ccc12` [CP-690,550], in assay [2], the “effect on mixed lymphocyte reaction (MLR)” value is “blocks”. Also, the “effect in collagen-induced arthritis model” value in assay [3] was “blocks”. Besides, the “efficacy in psoriasis patients” value in assay [4] was “demonstrated efficacy”. In addition, the “effect on delayed-type hypersensitivity response (DTH)” value in assay [5] was “blocks”.

As to `C=CC(=O)Nc1cccc(-c2cnc3[nH]cc(C(=O)C(C)(C)C)c3n2)c1` [Compound 1, N-(3-(7-pivaloyl-5H-pyrrolo[2,3-b]pyrazin-2-yl)phenyl)acrylamide], the “binding” value in assay [1] was “no increase”. For the same molecule, the “Compound in solution in the native state?” value in assay [6] (JAK3 at higher concentration than compound) was “no”. Further, the “Compound in solution in the denatured or digested state?” value in assay [6] (after digestion with trypsin) is recorded as “no”.

By IC50 is commonly meant the midpoint of a concentration-inhibition curve. For the molecule `C=CC(=O)Nc1cccc(-c2cnc3[nH]cc(C(=O)NC(C)(C)C)c3n2)c1` [Compound 2, 2-(3-acrylamidophenyl)-N-(tert-butyl)-5H-pyrrolo[2,3-b]pyrazine-7-carboxamide], the “binding” value in [1] was “no increase”. Further, the IC50 is 450 nM in assay [7]; 498 nM in assay [8]; 109 nM in assay [9]; 2700 nM in assay [10]; 56 nM in assay [11]; greater than 5 µM in assay [12]. Besides, the IC50 in [13] amounted to 104 nM; in assay [14] it was 1870 nM; in assay [15], 150 nM; in assay [16], 735 nM; in assay [17], 8.42 µM.
